Data taken from patent US20030078272A1, “Methods of use of fluoroquinolone compounds against ciprofloxacin-resistant and ciprofloxacin-sensitive pathogenic bacteria” (SmithKline Beecham Corporation, priority 1999, published 2003).
Converted amounts (≈) assume the structure as drawn. Read-outs that look alike come from different tables or passages of the source.

Experiments:
Type in all cases: cell-based, Streptococcus pneumoniae
pneumococci [1] = assay: Agar dilution MICs; conditions: for MIC50 / MIC90: Streptococcus pneumoniae
Method: (§1) Cultures were maintained at −70° C. in double-strength skim milk (Difco Laboratories, Detroit, Mich.). Gemifloxacin susceptibility powder, disks and E-tests (AB Biodisk, Solna, Sweden) were obtained from SmithKline Beecham Laboratories, Collegeville, Pa., USA.
(§2) These were performed (Jacobs, et al., Clin. Infect. Dis. 15:119-127, 1992 and Clark, et al., J. Clin. Microbiol. 36:3579-3584, 1998) on Mueller-Hinton agar supplemented with 5% sheep blood, incorporating compounds at concentrations from 0.002-8 μg/ml in doubling dilutions. Inocula were prepared by suspending growth from overnight cultures in Mueller-Hinton broth to a turbidity of a 0.5 McFarland standard. Final inocula contained 10^4 organisms/spot. Plates were inoculated with a Steers replicator with 3 mm inoculating pins, and incubated overnight at 35° C. in ambient air. The lowest concentration of antibiotic showing no growth was read as the MIC. Quality control strains—Staphylococcus aureus […] and Streptococcus pneumoniae ATCC 49619—were included in each run.

pneumococci [2] = assay: Microdilution MICs (NCCLS); conditions: microdilution (air), 200 strains
Method: (§3) Cultures were maintained at −70° C. in double-strength skim milk (Difco Laboratories, Detroit, Mich.). Gemifloxacin susceptibility powder, disks and E-tests (AB Biodisk, Solna, Sweden) were obtained from SmithKline Beecham Laboratories, Collegeville, Pa., USA. These were determined by the method recommended by the NCCLS, (Methods for Dilution Antimicrobial Susceptibility Tests for Bacteria that Grow Aerobically, 4th Edition, NCCLS, Villanova, Pa., 1997) using cation-adjusted Mueller-Hinton broth (Difco Laboratories) supplemented with 5% lysed defibrinated horse blood. Trays were prepared in-house. Suspensions with a turbidity equivalent to that of a 0.5 McFarland standard were prepared by suspending growth from blood agar plates in 2 ml Mueller-Hinton broth. Suspensions were further diluted 1:10 to obtain a final inoculum (10 μL) containing 5×10^5 CFU/mL. Trays were incubated 20-24 hours in ambient air at 35° C. Standard quality control strains (as above) were included in each run.

pneumococci [3] = assay: E-test MICs; conditions: 200 strains
Method: Cultures were maintained at −70° C. in double-strength skim milk (Difco Laboratories, Detroit, Mich.). Gemifloxacin susceptibility powder, disks and E-tests (AB Biodisk, Solna, Sweden) were obtained from SmithKline Beecham Laboratories, Collegeville, Pa., USA. Standard methodology was used (Clark, et al., J. Clin. Microbiol. 36:3579-3584, 1998). Mueller-Hinton plates supplemented with 5% sheep blood (BBL Microbiology Systems, Cockeysville, Md., USA) were inoculated with a 0.5 McFarland suspension harvested from plates, and E-test strips (AB Biodisk, Solna, Sweden) placed on each. After overnight incubation at 35° C., the MIC was read as the intersect where the ellipse of growth inhibition intersects the strip. E-test MICs were performed both in air and in CO2. E-test MICs were rounded up to the next highest doubling dilution.

pneumococci [4] = assay: Disk diffusion, 5 μg gemifloxacin disks; conditions: for zone of inhibition at 5 µg/disc: Streptococcus pneumoniae, 5 μg disk, read-out: zone diameter
Method: as §1
This was by standard NCCLS methodology (Performance Standards for Antimicrobial Disk Susceptibility Tests, 6th Edition, NCCLS, Villanova, Pa., 1997) using 5 μg gemifloxacin disks (BBL) and Mueller-Hinton plates supplemented with 5% sheep blood (BBL), inoculated with a 0.5 McFarland suspension. After overnight incubation in both air and 5% CO2 at 35° C., zone diameters were measured with calipers.

pneumococci [5] = assay: MIC testing, all methods together (agar dilution, microdilution, E-test); conditions: agar dilution and microdilution in air, E-test in air and CO2, all strains
Method: as §2
as §3, with “These” for “Cultures were maintained at −70° C. in double-strength skim milk (Difco Laboratories, Detroit, Mich.). Gemifloxacin susceptibility powder, disks and E-tests (AB Biodisk, Solna, Sweden) were obtained from SmithKline Beecham Laboratories, Collegeville, Pa., USA. These”
Standard methodology was used (Clark, et al., J. Clin. Microbiol. 36:3579-3584, 1998). Mueller-Hinton plates supplemented with 5% sheep blood (BBL Microbiology Systems, Cockeysville, Md., USA) were inoculated with a 0.5 McFarland suspension harvested from plates, and E-test strips (AB Biodisk, Solna, Sweden) placed on each. After overnight incubation at 35° C., the MIC was read as the intersect where the ellipse of growth inhibition intersects the strip. E-test MICs were performed both in air and in CO2. E-test MICs were rounded up to the next highest doubling dilution.

[6] = agar dilution (air), all 200 strains
[7] = agar dilution, 39 ciprofloxacin-resistant strains (ciprofloxacin MIC ≧8.0 μg/ml)
[8] = agar dilution, 161 ciprofloxacin-susceptible strains (ciprofloxacin MIC ≦4.0 μg/ml)

Work on `CO/N=C1\CN(c2nc3c(cc2F)c(=O)c(C(=O)O)cn3C2CC2)CC1CN` (racemic) [Gemifloxacin, (R,S)-7-(3-aminomethyl-4-methoxyiminopyrrolidin-1-yl)-1-cyclopropyl-6-fluoro-4-oxo-1,4-dihydro-1,8-naphthyridine-3-carboxylic acid] yielded an MIC50 (pneumococci [1]; [6]) of 0.03 µg/mL (≈ 0.077 µM), an MIC90 (pneumococci [1]; [6]) of 0.25 µg/mL (≈ 0.642 µM) and an MIC50 (pneumococci [1]; [7]) of 0.25 µg/mL (≈ 0.642 µM). For the same molecule, the MIC90 (pneumococci [1]; [7]) was 0.5 µg/mL (≈ 1.28 µM), the MIC50 (pneumococci [1]; [8]) was 0.03 µg/mL (≈ 0.077 µM) and the MIC90 (pneumococci [1]; [8]) was 0.03 µg/mL (≈ 0.077 µM). For the same molecule, the MIC range (pneumococci [1]; [6]) was 4 to 1000 ng/mL, the MIC range (pneumococci [1]; agar dilution (air), all 200 strains, listed as gemifloxacin) was 4 to 1000 ng/mL and the “MIC range” value (pneumococci [1]; [7]) was 30 to 1000 ng/mL. The “MIC range” value (pneumococci [1]; agar dilution, 39 ciprofloxacin-resistant strains (ciprofloxacin MIC ≧8.0 μg/ml), listed as gemifloxacin) was 30 to 1000 ng/mL, the “MIC range” value (pneumococci [1]; [8]) was 4 to 60 ng/mL and the MIC50 (pneumococci [2]; Streptococcus pneumoniae) was 0.016 µg/mL (≈ 0.0411 µM). It also gave an MIC90 (pneumococci [2]; Streptococcus pneumoniae) of 0.125 µg/mL (≈ 0.321 µM), an MIC range (pneumococci [2]) of 4 to 500 ng/mL and an MIC50 (pneumococci [3]; E-test (CO2)) of 0.016 µg/mL (≈ 0.0411 µM). For the same molecule, the MIC range (pneumococci [3]; E-test (CO2)) was 8 to 500 ng/mL, the MIC range (pneumococci [3]; E-test (CO2), listed as gemifloxacin) was 0 to 500 ng/mL and the MIC range (pneumococci [3]; E-test (air)) was 8 to 500 ng/mL. For the same molecule, the MIC90 (pneumococci [3]; Streptococcus pneumoniae, E-test (CO2)) was 0.25 µg/mL (≈ 0.642 µM), the MIC90 (pneumococci [3]; Streptococcus pneumoniae, E-test (air)) was 0.125 µg/mL (≈ 0.321 µM) and the MIC50 (pneumococci [3]; Streptococcus pneumoniae, E-test (air), read-out: MIC50) was 0.016 µg/mL (≈ 0.0411 µM). It also gave a zone of inhibition at 5 µg/disc (pneumococci [4]; in CO2, ciprofloxacin-resistant strains, full range) of 18 to 31 mm, a zone of inhibition at 5 µg/disc (pneumococci [4]; in CO2, ciprofloxacin-resistant strains, most strains) of 21 to 26 mm and a zone of inhibition at 5 µg/disc (pneumococci [4]; in air, quinolone-resistant strains, most strains) of less than 31 mm. The zone of inhibition at 5 µg/disc (pneumococci [4]; incubated in CO2, all ciprofloxacin-susceptible strains) was no less than 26 mm, the zone of inhibition at 5 µg/disc (pneumococci [4]; incubated in air, quinolone-susceptible strains) was no less than 28 mm and the zone diameter (pneumococci [4]; most quinolone-susceptible strains) was greater than 25 mm. The “zone diameter in air wider than in CO2” value (pneumococci [4]; most strains, air versus CO2) was 1-3 mm, the “MIC50s, range over methods” value (pneumococci [5]) was 0.016 to 0.03 µg/mL and the “MIC90s, range over methods” value (pneumococci [5]) was 0.125 to 0.25 µg/mL. For the same molecule, the “MIC range over all methods” value (pneumococci [5]) was 4 to 1000 ng/mL.
